Reference: patent US20070197590A1, “SUBSTITUTED DIPIPERIDINE CCR2 ANTAGONISTS” (priority 2006, published 2007)

Assays:
[1] = tested on: MCP-1 induced calcium ion influx in THP-1 cells; assay: MCP-1 Induced Calcium Mobilization in THP-1 Cells; format: cell-based; settings: Homo sapiens, THP-1, THP-1 cells, 0.2 μM MCP-1, FLIPR; read-out: Inhibition of MCP-1 Induced Calcium Ion Influx IC50
In short: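 Fluo-3-loaded (5 μM, 45 min) THP-1 cells preincubated 15 min with compound. Calcium change after 0.2 μM MCP-1 addition read by FLIPR relative to vehicle; IC50 values derived.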

CCR2 = molecular target: T1, CCR2 (Homo sapiens, UniProt P41597); assay: MCP-1 Receptor Binding Assay in THP-1 Cells; settings: THP-1 cells, 0.5 nM 125I labeled MCP-1, 2 hours at 30° C.; read-out: Inhibition of MCP-1 Binding IC50
T1 construct: host or cells: THP-1 cells
T1 sequence (P41597 1-360 isoform P41597-2): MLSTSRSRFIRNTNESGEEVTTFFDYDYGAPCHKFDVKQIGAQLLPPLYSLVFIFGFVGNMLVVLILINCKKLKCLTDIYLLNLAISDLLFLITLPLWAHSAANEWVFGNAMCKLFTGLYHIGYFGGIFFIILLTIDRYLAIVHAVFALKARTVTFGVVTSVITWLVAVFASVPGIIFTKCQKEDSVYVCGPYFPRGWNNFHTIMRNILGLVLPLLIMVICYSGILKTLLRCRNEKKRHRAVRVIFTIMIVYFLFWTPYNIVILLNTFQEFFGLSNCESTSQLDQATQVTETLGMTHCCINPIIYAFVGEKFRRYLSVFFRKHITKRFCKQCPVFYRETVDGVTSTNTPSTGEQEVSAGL
In short: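 Whole THP-1 cells incubated 2 h at 30° C with 0.5 nM 125I-MCP-1 and varying compound concentrations; bound radioactivity harvested on filters and counted by scintillation. Nonspecific binding with 1 μM cold MCP-1; IC50 for inhibition of binding versus vehicle.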

[2] = tested on: MCP-1 induced chemotaxis of THP-1 cells; assay: MCP-1 Induced Chemotaxis in THP-1 Cells; format: cell-based; settings: Homo sapiens, MCP-1 0.01 μg/mL, 3 hours at 37° C., read-out: Inhibition of MCP-1 Induced Chemotaxis IC50
Procedure: MCP-1 induced chemotaxis was run in a 24-well chemotaxis chamber. MCP-1 (0.01 μg/mL) was added to the lower chamber and 100 μL of THP-1 cells (1×10^7 cell/mL) was added to the top chamber. Varying concentrations of test compound were added to the top and bottom chambers. Cells were allowed to chemotax for 3 hours at 37° C. and 5% CO2. An aliquot of the cells that had migrated to the bottom chamber was taken and counted then compared to vehicle.
Table 3 lists IC50 values for inhibition of MCP-1 induced chemotaxis.

SMILES	IC50 [1] [nM]	IC50 (CCR2) [nM]	IC50 [2] [nM]
COc1ccc(C2CCN(CC(O)C3CCN(C(=S)Nc4cccc(Br)c4)CC3)CC2)cc1 (stereo not drawn) [Compound 16, 4-{1-hydroxy-2-[4-(4-methoxy-phenyl)-piperidin-1-yl]-ethyl}-piperidine-1-carbothioic acid (3-bromo-phenyl)-amide]	980	130	300
O=C(Nc1ccc(Cl)c(Cl)c1)N1CCC(C(O)CN2CCC(c3c[nH]c4ncccc34)CC2)CC1 (stereo not drawn) [Compound 24, 4-{1-hydroxy-2-[4-(1H-pyrrolo[2,3-b]pyridin-3-yl)-piperidin-1-yl]-ethyl}-piperidine-1-carboxylic acid (3,4-dichloro-phenyl)-amide]	120	70	70
CSc1ccc(NC(=O)N2CCC(C(O)CN3CCC(c4c[nH]c5ncccc45)CC3)CC2)cc1 (stereo not drawn) [Compound 25, 4-{1-hydroxy-2-[4-(1H-pyrrolo[2,3-b]pyridin-3-yl)-piperidin-1-yl]-ethyl}-piperidine-1-carboxylic acid (4-methylsulfanyl-phenyl)-amide]	1500	810	640
COc1ccc(C2CCN(CC(O)C3CCN(C(=O)/C=C/c4cccc(C)c4)CC3)CC2)cc1 (stereo not drawn) [Compound 29]	90	70	70
COc1ccc(C2CCN(CC(O)C3CCN(C(=O)/C=C/c4cccc(C(F)(F)F)c4)CC3)CC2)cc1 (stereo not drawn) [Compound 30]	220	50	60
COc1ccc(C2CCN(CC(O)C3CCN(C(=O)/C=C/c4ccc(F)c(F)c4)CC3)CC2)cc1 (stereo not drawn) [Compound 32]	80	70	100
O=C(/C=C/c1cc(F)cc(F)c1)N1CCC(C(O)CN2CCC(c3cc[nH]n3)CC2)CC1 (stereo not drawn) [Compound 34]	10900	570	840
COc1ccc(C2CCN(CC(CO)C3CCN(C(=O)/C=C/c4ccc(Cl)c(Cl)c4)CC3)CC2)cc1 (stereo not drawn) [Compound 43]	180	590	90
COc1ccc(C2CCN(CC(CO)C3CCN(C(=O)/C=C/c4cc(F)cc(F)c4)CC3)CC2)cc1 (stereo not drawn) [Compound 45]	150	120	170
O=C(O)C(CC1CCN(C(=O)C=Cc2ccc(Cl)c(Cl)c2)CC1)N1CCC(c2c[nH]c3ccccc23)CC1 (stereo not drawn) [Compound 60, 3-{1-[3-(3,4-dichloro-phenyl)-acryloyl]-piperidin-4-yl}-2-[4-(1H-indol-3-yl)-piperidin-1-yl]-propionic acid]	380	310	290
O=C(O)C(CC1CCN(C(=O)C=Cc2cc(F)cc(F)c2)CC1)N1CCC(c2c[nH]c3ccccc23)CC1 (stereo not drawn) [Compound 61, 3-{1-[3-(3,5-difluoro-phenyl)-acryloyl]-piperidin-4-yl}-2-[4-(1H-indol-3-yl)-piperidin-1-yl]-propionic acid]	2800	830	240
O=C(/C=C/c1cc(Cl)cc(Cl)c1)N1CCC(O)(C(O)CN2CCC(c3c[nH]c4ccccc34)CC2)CC1 (stereo not drawn) [Compound 73]	1	130	30
O=C(/C=C/c1cc(F)cc(Cl)c1)N1CCC(O)(C(O)CN2CCC(c3c[nH]c4ccccc34)CC2)CC1 (stereo not drawn) [Compound 74]	2	40	80
O=C(/C=C/c1ccc(Cl)c(Cl)c1)N1CCC(O)(C(O)CN2CCC(c3c[nH]c4ccccc34)CC2)CC1 (stereo not drawn) [Compound 75]	5	350	30
O=C(/C=C/c1ccc(F)c(F)c1)N1CCC(O)(C(O)CN2CCC(c3c[nH]c4ccccc34)CC2)CC1 (stereo not drawn) [Compound 78]	40	370	210
O=C(/C=C/c1ccc(F)c(Br)c1)N1CCC(O)(C(O)CN2CCC(c3c[nH]c4ccccc34)CC2)CC1 (stereo not drawn) [Compound 80]	6	200	90
O=C(/C=C/c1ccc(Cl)c(Cl)c1)N1CCC(C(O)CN2CCC(c3nc4ccccc4[nH]3)CC2)CC1 (stereo not drawn) [Compound 85]	6	150	40
COc1ccc(C2CCN(CC(O)C3(O)CCN(C(=O)/C=C/c4cc(F)c(F)c(F)c4)CC3)CC2)cc1 (stereo not drawn) [Compound 88]	980	170	30
COc1ccc(C2CCN(CC(O)C3(O)CCN(C(=O)/C=C/c4ccc(F)c(F)c4)CC3)CC2)cc1 (stereo not drawn) [Compound 93]	9200	310	120

The next lines start with the values.

IC50 [1] [nM]	IC50 (CCR2) [nM]	IC50 [2] [nM]	SMILES
1700	680	420	CS(=O)(=O)Nc1ccc2[nH]cc(C3CCN(CC(=O)C4CCN(C(=O)C=Cc5cc(F)c(F)c(F)c5)CC4)CC3)c2c1 [Compound 18, N-{3-[1-(2-oxo-2-{1-[3-(3,4,5-trifluoro-phenyl)-acryloyl]-piperidin-4-yl}-ethyl)-piperidin-4-yl]-1H-indol-5-yl}-methanesulfonamide]
30	130	190	Cc1cccc(/C=C/C(=O)N2CCC(C(O)CN3CCC(c4c[nH]c5ncccc45)CC3)CC2)c1 (stereo not drawn) [Compound 19]
230	50	20	O=C(/C=C/c1cc(F)cc(F)c1)N1CCC(C(O)CN2CCC(c3c[nH]c4ncccc34)CC2)CC1 (stereo not drawn) [Compound 20]
480	50	20	O=C(/C=C/c1cc(F)c(F)c(F)c1)N1CCC(C(O)CN2CCC(c3c[nH]c4ncccc34)CC2)CC1 (stereo not drawn) [Compound 21]
30	190	360	O=C(/C=C/c1cccc(C(F)(F)F)c1)N1CCC(C(O)CN2CCC(c3c[nH]c4ncccc34)CC2)CC1 (stereo not drawn) [Compound 22]
7	20	20	O=C(/C=C/c1ccc(Cl)c(Cl)c1)N1CCC(C(O)CN2CCC(c3c[nH]c4ncccc34)CC2)CC1 (stereo not drawn) [Compound 23]
370	70	20	COc1ccc2[nH]cc(C3CCN(CC(O)C4CCN(C(=O)/C=C/c5cc(F)cc(F)c5)CC4)CC3)c2c1 (stereo not drawn) [Compound 26]
8	10	10	CS(=O)(=O)Nc1ccc2[nH]cc(C3CCN(CC(O)C4CCN(C(=O)/C=C/c5cc(F)c(F)c(F)c5)CC4)CC3)c2c1 (stereo not drawn) [Compound 27]
310	250	370	CS(=O)(=O)Nc1ccc2[nH]cc(C3CCN(CC(N)C4CCN(C(=O)C=Cc5cc(F)c(F)c(F)c5)CC4)CC3)c2c1 (stereo not drawn) [Compound 28, N-{3-[1-(2-amino-2-{1-[3-(3,4,5-trifluoro-phenyl)-acryloyl]-piperidin-4-yl}-ethyl)-piperidin-4-yl]-1H-indol-5-yl}-methanesulfonamide]
170	80	30	Cc1cccc(C=CC(=O)N2CCC(C(O)CN3CCC(c4c[nH]c5ccc(NS(C)(=O)=O)cc45)CC3)CC2)c1 (stereo not drawn) [Compound 40, N-[3-(1-{2-hydroxy-2-[1-(3-m-tolyl-acryloyl)-piperidin-4-yl]-ethyl}-piperidin-4-yl)-1H-indol-5-yl]-methanesulfonamide]
90	40	20	CS(=O)(=O)Nc1ccc2[nH]cc(C3CCN(CC(O)C4CCN(C(=O)C=Cc5cc(F)cc(F)c5)CC4)CC3)c2c1 (stereo not drawn) [Compound 41, N-{3-[1-(2-{1-[3-(3,5-difluoro-phenyl)-acryloyl]-piperidin-4-yl}-2-hydroxy-ethyl)-piperidin-4-yl]-1H-indol-5-yl}-methanesulfonamide]
40	80	250	COc1ccc(C2CCN(CC(N)C3CCN(C(=O)/C=C/c4cc(F)c(F)c(F)c4)CC3)CC2)cc1 (stereo not drawn) [Compound 65]
300	240	700	COC(=O)NC(CN1CCC(c2ccc(OC)cc2)CC1)C1CCN(C(=O)C=Cc2cc(F)c(F)c(F)c2)CC1 (stereo not drawn) [Compound 67, (2-[4-(4-methoxy-phenyl)-piperidin-1-yl]-1-{1-[3-(3,4,5-trifluoro-phenyl)-acryloyl]-piperidin-4-yl}-ethyl)-carbamic acid methyl ester]
80	180	10	O=C(/C=C/c1cc(F)c(F)c(F)c1)N1CCC(O)(C(O)CN2CCC(c3c[nH]c4ccccc34)CC2)CC1 (stereo not drawn) [Compound 70]
70	80	50	O=C(/C=C/c1cc(F)c(F)c(F)c1)N1CCC(C(O)CN2CCC(c3nc4ccccc4[nH]3)CC2)CC1 (stereo not drawn) [Compound 86]
